We go through 22 substances from patent publication US10598667B2, “Functional illumination in living cells” (The Regents of the University of California, priority 2013, dated 2020).

“Also recorded” adds a separate entry of the source. Bridges are numbered along the chain shown (N, C = ends). Where no end group is shown, it is not given here. [ ]: non-standard residue; d: D form. pY = N[C@@H](Cc1ccc(OP(=O)(O)O)cc1)C(=O)O

Assay [1] can be described thus: MG binding of peptide ligands from screening and their derivatives. More on the design: key to MG binding: −: no binding; +: weak binding; ++: mild binding; +++: strong binding; ++++: very strong binding. The note with it: for MG binding: 11 hour incubation with 5 μM MG in PBS buffer (pH 7.4); for MG binding of phosphorylated form (in words): phosphorylated but not unphosphorylated form.

The nature of assay [2]: Sequential screening of PDMS affixed OBOC bead array with three dyes. Type of assay: binding. Conditions: 100 μM dye in PBS, three dyes incubated sequentially on the same bead array. On the procedure:
Silicon Elastomer Base was mixed completely with Silicone Elastomer Curing Agent at ratio 10:1 in volume and the solution was kept in vacuum container for 15 to 20 minutes to eliminate the gas bubbles formed during the mixing process. After the removal of all residual bubbles, approximately 0.5-1 mL of PDMS solution was added into the bottom of a 60 mm culture dish. The dish was then spun on a single wafer spin processor (Laurell Technologies Corporation®, model WS-6505-6NPP/Lite) to evenly distribute the solution over the plates, at a speed of 4000 rpm for 30 s. A 5 μm layer of PDMS was formed on the bottom of dish and was cured at 80° C. for 5 min or at room temperature for 24 hrs to allow for beads immobilization. Knowing that the PDMS coating was about 5 μm thick and the radius of bead was around 45 μm, the percentage of free bead surface area was estimated by the formula of [1-2πrh/4πr^2]×100% (h=thickness of PDMS layer; r=radius of bead) to be approximately 95%. The library beads resuspended in 70% ethanol solution were first randomly placed on the surface of a glass plate that was 10% smaller than the dish used in the experiment. After the ethanol evaporated, a syringe needle was used to adjust the dry beads to evenly redistribute beads on the glass surface. Then the dish was inverted and the PDMS layer was pressed down onto the glass plate with beads. The library beads were embedded partly inside the PDMS layer.
Dye solutions were prepared in PBS to a 100 μM final concentration and 5 mL of each dye solution were added into the 60 mm dish with beads. Three dyes were tested sequentially. The dish was kept swirling at 60 rpm on the rotator. The dye binding was monitored for 90 minutes, and then the dye solution was removed from the dishes and PBS was added to rinse the beads on the bottom to remove the color dye. The PBS solution was changed every 30 min and the dish was always swirled as above. The beads color change was also observed and recorded at certain time interval during the whole wash process to collect data of color dissociation. Before adding the next dye solution, beads were washed with 70% ethanol to completely remove residual dye and were rinsed with PBS solution three times afterwards.
A representative positive bead for each color was selected for the color binding and dissociation study. A series of images were taken at different time points during the binding and washing process. From the images taken, regions of interest (ROI) with the same size were picked up from the color beads and colorless control beads. The value from the control bead was subtracted from the color bead to get quantitated color value for each single color bead. The measure of the color intensity for each color dye was performed using the Kodak Image Station 2000MM.
The PDMS affixed bead array was incubated with three different dyes sequentially. […] Eleven beads were selected for further analysis based on their characteristic binding profiles (FIG. 2). […] The amino acid sequences of the peptides bound to the beads were determined (Table 1).

A short description of assay [3]: Abltide motif OBOC library screening with MG before and after dephosphorylation. Format: binding. The note with it: for Post-dephos fluorescent signal: after dephosphorylation (treatment with 50% HF); for Pre-dephos fluorescent signal: before dephosphorylation; for ΔF/F: pre- vs post-dephosphorylation. The source says: Screening for Library category 2 (Table 2) necessitates that the entire OBOC bead library array be scanned with and without MG or other dyes, before and after PTM. Here, we will use c-src PTK as an example. We have previously reported the use of OBOC combichem and radiosubstrate screening method to identify an efficient and specific peptide substrate (YIYGSFK; SEQ ID NO:35) for c-src PTK. […] Recently, we prepared YIY(P)GSFKKKXn (SEQ ID NO:216) libraries (X=all 19 L-amino acids except Cys, n=6-9) and screened them against MG. After 1 hr incubation, near-infra-red image of the entire immobilized library was captured. The bead library was then thoroughly washed, and dephosphorylated with 50% HF. Beads that strongly fluoresce near infra-red before dephosphorylation but fluoresce weakly (or none) after dephosphorylation were selected as candidate GESIs for c-src PTK (Table 6). Of these 8 peptides isolated from screening ˜300,000 beads, 3 has 1 Trp, and the remaining 5 have no Trp. Work is currently underway to characterize their substrate efficiency and specificity biochemically in a cell-free system and subsequently inside living cells. In principle, using various dyes and PKs to screen OBOC libraries, we should be able to develop several GESIs against several PKs that can be multiplexed with different dyes in living cells. We have developed GESIs for one serine/threonine kinase (PKA), and two tyrosine kinases (c-src and bcr-abl). Very recently, we have designed another library with a c-abl motif (“Abltide”): EAIY(P)AAPFAKKXn (SEQ ID NO:217).
After screening about one million beads with MG, we identified four peptides that greatly activate MG in phosphorylated but not dephosphorylated form (Table 7). Photomicrograph of LLT4bead is shown in FIG. 21, with a marked decrease in fluorescent signal (relative arbitrary level of 1930 to 93 and a ΔF/F value of 19; see right columns of Table 7) after dephosphorylation (treatment with 50% HF). High consensus was observed. All 4 beads have a Tyr at X7, a negative-charged amino acid at X4, hydrophobic amino acids at X1, X6 and X8 (3 out 4 have Val at X6 and Tyr at X8). Three out four beads have a positive-charged amino acid at X2 position. To discover GESIs for PKA, we will include the known PKA substrate motif (RRX[S/T]; SEQ ID NO:223) into the OBOC libraries. In some libraries, the known kinase substrate motifs will be placed between two stretches of random residues. In some cases, we have found increased (instead of decrease) fluorescence after dephosphorylation. These peptides are potential leads for developing phosphatase sensors.

With “1C (CDDYI[pY]GSFKPYIAC; disulfide 1-15 (inferred)) [Peptide 1C]”, the MG binding entry in assay [1] is “++++”.
The same measure, in the same setting: the entry for “2C (CDVYI[pY]GSFKNDYIC; disulfide 1-15 (inferred)) [Peptide 2C]” is “++++”.
On the same count and under the same terms, the entry for “3-P (DNYIYGSFKPWEWC; synthetic genetically encoded small illuminant (GESI) malachite green (MG) binding peptide 3-P from linear library L-1)” is “++”.
The same measure, in the same setting: the entry for “3C (CDNYI[pY]GSFKNPWEWC; disulfide 1-16 (inferred)) [Peptide 3C]” is “++++”; for “4C (CDVYI[pY]GSFKYWPAC; disulfide 1-15 (inferred)) [Peptide 4C]” it is “++++”.
For the substance “5C (CDTYI[pY]GSFKVNPDC; disulfide 1-15 (inferred)) [Peptide 5C]”, the MG binding result in assay [1] is on record as “+++”.
For “CEIHRIC (synthetic genetically encoded small illuminant (GESI) peptide of bead #9)”, the Dye binding entry in assay [2] (listed as # 9) is “Bromocresol”; in assay [2] (listed as #9), “only bind to bromocresol purple; also recorded: bind only to bromocresol purple”.
In the case of “CGNTEPC (synthetic genetically encoded small illuminant (GESI) peptide of bead #6)”, the Dye binding result in assay [2] (listed as # 6) is given as “Malachite green”; in assay [2] (listed as #6) it was “only bind to malachite green; also recorded: bind only to malachite green”.
As to “CHPLLPC (not fully specified (bridges); cysteine pairing not given here; also: bead-bound) [Bead #5]”, the Dye binding result in assay [2] (listed as # 5) is listed as “Bromocresol”; in assay [2] (listed as #5), “only bind to bromocresol purple; also recorded: bind only to bromocresol purple”.
Regarding “CLMNKWC (not fully specified (bridges); cysteine pairing not given here; also: bead-bound) [Bead #2]”, the Dye binding entry in assay [2] (listed as #2) was “bind to both indigo carmine and bromocresol purple”.
As to “CLSDEFC (not fully specified (bridges); cysteine pairing not given here; also: bead-bound) [Bead #11]”, the values for the Dye binding result in assay [2] (listed as # 11) and in assay [2] (listed as #11) were “Malachite green” and “only bind to malachite green; also recorded: bind only to malachite green”, respectively.
For the substance “CMTQEAC (synthetic genetically encoded small illuminant (GESI) peptide of bead #8)”, the Dye binding result in assay [2] (listed as # 8) is reported as “Malachite green”; in assay [2] (listed as #8), “only bind to malachite green; also recorded: bind only to malachite green”.
As for “CQPDLTC (not fully specified (bridges); cysteine pairing not given here; also: bead-bound) [Bead #3]”, the Dye binding result in assay [2] (listed as # 3) is listed as “Malachite green”; in assay [2] (listed as #3), “only bind to malachite green; also recorded: bind only to malachite green”.
Take “CYKWWVC (synthetic genetically encoded small illuminant (GESI) peptide of bead #7)”: the Dye binding entry in assay [2] (listed as #7) was “bind to both indigo carmine and bromocresol purple”.
In the case of “DFMRQGVYDIPE (synthetic genetically encoded small illuminant (GESI) malachite green (MG) binding Peptide 5)”, in assay [1], the MG binding result is on record as “++” and the “MG binding of phosphorylated form (in words)” value (from here on “MG binding … (in words)”) is given as “bound MG”.
Regarding “DILDDGDEIQGE (synthetic genetically encoded small illuminant (GESI) malachite green (MG) binding Peptide 1)”, in assay [1], the MG binding result was “+” and the “MG binding … (in words)” value was “bound MG”.
For “DRDGDGDHRKIE (synthetic genetically encoded small illuminant (GESI) malachite green (MG) binding Peptide 3)”, in assay [1], the MG binding entry was “+++”.
Consider “DSDSWGEYFHEE (synthetic genetically encoded small illuminant (GESI) malachite green (MG) binding Peptide 4)”, for which, in assay [1], the MG binding entry was “++” and the “MG binding … (in words)” value is reported as “bound MG”.
In assay [3], “EAIY(P)AAPFAKKLYIMDGWF (EAI[pY]AAPFAKKLYIMDGWF) [LLT4]” returned a Post-dephos fluorescent signal of 93 relative arbitrary level, a Pre-dephos fluorescent signal of 1930 relative arbitrary level and a ΔF/F of 19.
In assay [3], “EAIY(P)AAPFAKKYYVQDSRA (EAI[pY]AAPFAKKYYVQDSRA) [LLT2]” showed a Post-dephos fluorescent signal of 44 relative arbitrary level, a Pre-dephos fluorescent signal of 575 relative arbitrary level and a ΔF/F of 12.
For “EAIY(P)AAPFAKKYYVSERKW (EAI[pY]AAPFAKKYYVSERKW) [LLT3]” the same measures were 63 relative arbitrary level, 835 relative arbitrary level and 12.
For “EAIY(P)AAPFAKKYYVYDMHI (EAI[pY]AAPFAKKYYVYDMHI) [LLT1]” the same measures were 72 relative arbitrary level, 939 relative arbitrary level and 12.
